These results are taken from PubChem BioAssay (NCI).

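Compound exposure: 48 hours, 5 concentrations, 96-well plates. GI50 marks 50% less growth. TGI: total growth inhibition.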 Where only a bound is given, the exact number is not on record here.

Test systems include SF-539 CNS; SK-MEL-2 melanoma; MALME-3M melanoma; SR leukemia; MCF7 breast; ACHN renal; KM12 colon; HS 578T breast; UO-31 renal; PC-3 prostate.
Holding throughout (assay): inhibition of tumour cell growth, NCI panel, 48 h

With `C#CCC(Cc1cnc2nc(N)nc(N)c2n1)c1ccc(C(=O)N[C@@H](CCC(=O)O)C(=O)O)cc1` (stereo not given in full), the GI50 in the test with SF-539 CNS was below 0.01 µM; with SK-MEL-2 melanoma, above 100 µM; in the test on MALME-3M melanoma, above 44 µM; in the test on SR leukemia, below 0.01 µM; in the test with MCF7 breast, below 0.01 µM; with ACHN renal it was below 0.01 µM. Moreover, the GI50 is below 0.01 µM in the test with KM12 colon, above 100 µM in the test on HS 578T breast, below 0.01 µM in the test on UO-31 renal and below 0.01 µM in the test with PC-3 prostate. The TGI with SF-539 CNS, in the test with SK-MEL-2 melanoma, in the test with MALME-3M melanoma, in the test on SR leukemia, in the test with MCF7 breast and in the test on ACHN renal was above 100 µM throughout. Moreover, the TGI with KM12 colon, with HS 578T breast, in the test on UO-31 renal and in the test with PC-3 prostate was above 100 µM in each case.

Take `CC(C)(C)c1nn(-c2ccccc2)c2c1C(=O)CSC(c1ccccc1Cl)N2` (stereo not given): the GI50 was 2.36 µM with SF-539 CNS; 2.1 µM with SK-MEL-2 melanoma; 14.7 µM in the test with MALME-3M melanoma; 0.413 µM with SR leukemia; 1.03 µM in the test on MCF7 breast; 4.87 µM with ACHN renal. The GI50 with KM12 colon was 1.48 µM; in the test with HS 578T breast, 1.26 µM; in the test on UO-31 renal, 3.03 µM; in the test with PC-3 prostate it was 1.62 µM. In addition, the TGI is 10.1 µM with SF-539 CNS; 13.4 µM in the test on SK-MEL-2 melanoma; 32.6 µM in the test with MALME-3M melanoma; 9.89 µM with SR leukemia; 13.5 µM in the test on MCF7 breast; 19.3 µM with ACHN renal. Moreover, the TGI with KM12 colon was determined as 14.7 µM; with HS 578T breast it was 7.22 µM; in the test on UO-31 renal it was 19.1 µM; in the test on PC-3 prostate it was 16.5 µM.

For `Cn1c(/C=C(\C#N)c2ccccc2)nc2c(N3CCOCC3)nc(Cl)nc21`, the GI50 with SF-539 CNS was 1.42 µM; with SK-MEL-2 melanoma it was 1.62 µM; with MALME-3M melanoma, 1.45 µM; in the test with SR leukemia, 0.393 µM; in the test on MCF7 breast, 0.48 µM; with ACHN renal, 0.458 µM. In addition, the GI50 was 1.87 µM with KM12 colon, 1.69 µM with HS 578T breast, 0.553 µM in the test with UO-31 renal and 0.849 µM with PC-3 prostate. Also, the TGI in the test on SF-539 CNS was determined as 2.74 µM; with SK-MEL-2 melanoma it was 3.18 µM; with MALME-3M melanoma, 2.86 µM; in the test on SR leukemia, 2.1 µM; in the test with MCF7 breast it was 2.15 µM; with ACHN renal it was 1.59 µM. The TGI in the test on KM12 colon worked out at 3.77 µM; with HS 578T breast, 5.64 µM; in the test on UO-31 renal, 1.88 µM; in the test with PC-3 prostate, 2.99 µM.

In the case of `CC1=C2C[C@H]3[C@@H](CC[C@@H]4CC(NS(C)(=O)=O)CC[C@@]43C)[C@@H]2CC[C@@]2(C1)O[C@@H]1C[C@H](C)CN[C@H]1[C@H]2C` (stereo not given in full), the GI50 is 12.9 µM in the test on SF-539 CNS; 6.76 µM with SK-MEL-2 melanoma; 9.75 µM with MALME-3M melanoma; 3.38 µM in the test on SR leukemia; 3.49 µM with MCF7 breast; 3.85 µM with ACHN renal. Further, the GI50 in the test on KM12 colon was 9.22 µM; in the test with HS 578T breast it was 11.8 µM; with UO-31 renal it was 10.7 µM; in the test on PC-3 prostate, 4.39 µM. Further, the TGI in the test with SF-539 CNS was 25.9 µM; in the test on SK-MEL-2 melanoma it was 15.4 µM; with MALME-3M melanoma, 25.2 µM; with SR leukemia, 12 µM; in the test on MCF7 breast it was 14.9 µM; with ACHN renal it was 14.6 µM. For the same molecule, the TGI in the test on KM12 colon was found to be 22.6 µM; with HS 578T breast, 37.5 µM; in the test on UO-31 renal, 23.5 µM; with PC-3 prostate, 17.3 µM.

Consider `O=NNc1ccc(S(=O)(=O)c2ccccc2)cn1`, for which the TGI with SF-539 CNS, with SK-MEL-2 melanoma, with MALME-3M melanoma, in the test with SR leukemia, with MCF7 breast and in the test on ACHN renal was above 100 µM in each case. For the same molecule, the TGI in the test on KM12 colon, in the test with HS 578T breast, in the test on UO-31 renal and with PC-3 prostate was above 100 µM throughout.

With `CC(C)[C@H](CO)Nc1nc(Nc2ccc(C(=O)NCCNS(=O)(=O)c3cccc4c(N(C)C)cccc34)c(Cl)c2)c2ncn(C(C)C)c2n1`, the GI50 is 1.68 µM in the test with SF-539 CNS; 2.67 µM in the test on SK-MEL-2 melanoma; above 25.5 µM in the test with MALME-3M melanoma; 1.87 µM in the test with SR leukemia; 0.987 µM in the test with MCF7 breast; 5.74 µM in the test with ACHN renal. Moreover, the GI50 with KM12 colon was 0.447 µM; in the test with HS 578T breast, 2.08 µM; in the test with UO-31 renal, 9.78 µM; with PC-3 prostate, 3.56 µM. The TGI is 4.39 µM in the test on SF-539 CNS; 7.73 µM with SK-MEL-2 melanoma; above 100 µM with MALME-3M melanoma; above 24.9 µM in the test on SR leukemia; above 83 µM in the test with MCF7 breast; above 100 µM in the test on ACHN renal. Besides, the TGI was 2.72 µM with KM12 colon, above 100 µM with HS 578T breast, above 100 µM with UO-31 renal and above 100 µM with PC-3 prostate.
